Test results: ChEMBL document CHEMBL4706739, “Novel Heterobicyclic Carboxamides for Treating Eye Diseases” (ACS Med Chem Lett, 2021)

Target: Rho-associated protein kinase 2 (Homo sapiens, UniProt O75116)
Test: Inhibition of ROCK2 (unknown origin) using KRRRLSSLRA as substrate incubated for 75 mins in presence of ATP and DTT by Kinase-Glo luminescent assay

Chain of Rho-associated protein kinase 2 (O75116 whole entry): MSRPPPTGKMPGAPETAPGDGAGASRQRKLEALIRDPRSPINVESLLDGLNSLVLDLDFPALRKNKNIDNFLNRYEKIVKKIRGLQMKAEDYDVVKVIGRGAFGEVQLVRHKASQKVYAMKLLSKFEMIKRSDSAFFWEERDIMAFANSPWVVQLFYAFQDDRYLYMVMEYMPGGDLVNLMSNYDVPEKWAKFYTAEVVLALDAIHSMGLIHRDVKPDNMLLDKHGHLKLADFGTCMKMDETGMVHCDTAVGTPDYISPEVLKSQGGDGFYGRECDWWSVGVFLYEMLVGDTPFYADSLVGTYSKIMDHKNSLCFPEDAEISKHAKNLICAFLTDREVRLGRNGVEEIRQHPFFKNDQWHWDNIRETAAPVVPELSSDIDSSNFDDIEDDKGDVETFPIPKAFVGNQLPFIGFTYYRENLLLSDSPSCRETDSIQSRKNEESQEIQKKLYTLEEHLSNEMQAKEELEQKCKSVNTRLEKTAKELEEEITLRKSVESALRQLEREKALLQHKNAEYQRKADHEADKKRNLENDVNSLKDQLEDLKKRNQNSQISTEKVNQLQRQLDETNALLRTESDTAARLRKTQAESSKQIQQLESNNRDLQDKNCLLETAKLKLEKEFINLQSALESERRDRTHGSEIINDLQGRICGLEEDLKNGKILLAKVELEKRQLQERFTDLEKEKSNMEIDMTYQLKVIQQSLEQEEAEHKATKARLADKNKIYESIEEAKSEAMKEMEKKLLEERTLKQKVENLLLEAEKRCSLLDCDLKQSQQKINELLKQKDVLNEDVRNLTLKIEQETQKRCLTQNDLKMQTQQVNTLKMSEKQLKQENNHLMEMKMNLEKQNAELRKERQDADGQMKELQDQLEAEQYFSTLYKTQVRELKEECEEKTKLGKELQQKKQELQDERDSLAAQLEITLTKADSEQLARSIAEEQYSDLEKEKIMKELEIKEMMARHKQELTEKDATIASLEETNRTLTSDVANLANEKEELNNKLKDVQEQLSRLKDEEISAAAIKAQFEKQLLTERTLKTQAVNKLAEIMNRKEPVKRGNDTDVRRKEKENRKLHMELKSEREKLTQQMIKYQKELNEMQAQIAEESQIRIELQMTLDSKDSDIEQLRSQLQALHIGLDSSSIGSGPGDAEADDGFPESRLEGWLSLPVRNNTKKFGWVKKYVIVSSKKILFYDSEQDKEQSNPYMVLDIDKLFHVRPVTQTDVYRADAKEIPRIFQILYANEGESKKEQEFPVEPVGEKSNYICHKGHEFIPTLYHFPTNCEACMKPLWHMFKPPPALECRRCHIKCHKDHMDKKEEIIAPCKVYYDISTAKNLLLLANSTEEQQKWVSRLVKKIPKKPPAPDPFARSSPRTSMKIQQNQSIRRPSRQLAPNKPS

Row | IC50 [nM] | SMILES
1 | 6 | O=C(Nc1nc2ccncc2s1)[C@@H]1C[C@H]1c1ccc(S(=O)(=O)Nc2ccccn2)cc1
2 | 6 | O=C(Nc1ccc2cnccc2n1)[C@@H]1C[C@H]1c1ccc(S(=O)(=O)Nc2ccccn2)cc1
